19 molecules from patent publication US10196390B2, “TYK2 inhibitors and uses thereof” (Nimbus Lakshmi, Inc., priority 2014, dated 2019) can be followed below.

pKi: −log10 of the molar value. Bounds are passed on as bounds.

For one assay, the target named is TYK2 (Homo sapiens (Human), UniProt P29597). Briefly: Tyk2 activity inhibition assay (radioactive kinase assay / Caliper assay). It is filed as biochemical. The gist of the method:
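Two formats were used. Caliper off-chip mobility shift read phosphorylated peptide 30 (3 uM) after 25 min at 28° C with 9.75 nM TYK2 and ATP at 16 uM or 1 mM. Radioactive assay: 10 μM 33P-ATP, 20 μM peptide, 120 min room temp, P81 filter counting.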

The next assay concerns the target JAK2 (Homo sapiens (Human), UniProt O60674). Briefly: JAK2 activity inhibition assay (radioactive kinase assay / Caliper assay). It is filed as biochemical. Particulars: read-out: JAK2 Ki. The gist of the method:
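Reaction ran 25 min at 28° C after adding peptide/ATP mix (10 mM MgCl2) to compound and enzyme in HEPES pH 7.5 buffer with Brij-35, Triton and EGTA. EDTA stop, then microfluidic off-chip separation quantified phosphorylated peptide.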

Sequence of JAK2 (O60674 whole entry): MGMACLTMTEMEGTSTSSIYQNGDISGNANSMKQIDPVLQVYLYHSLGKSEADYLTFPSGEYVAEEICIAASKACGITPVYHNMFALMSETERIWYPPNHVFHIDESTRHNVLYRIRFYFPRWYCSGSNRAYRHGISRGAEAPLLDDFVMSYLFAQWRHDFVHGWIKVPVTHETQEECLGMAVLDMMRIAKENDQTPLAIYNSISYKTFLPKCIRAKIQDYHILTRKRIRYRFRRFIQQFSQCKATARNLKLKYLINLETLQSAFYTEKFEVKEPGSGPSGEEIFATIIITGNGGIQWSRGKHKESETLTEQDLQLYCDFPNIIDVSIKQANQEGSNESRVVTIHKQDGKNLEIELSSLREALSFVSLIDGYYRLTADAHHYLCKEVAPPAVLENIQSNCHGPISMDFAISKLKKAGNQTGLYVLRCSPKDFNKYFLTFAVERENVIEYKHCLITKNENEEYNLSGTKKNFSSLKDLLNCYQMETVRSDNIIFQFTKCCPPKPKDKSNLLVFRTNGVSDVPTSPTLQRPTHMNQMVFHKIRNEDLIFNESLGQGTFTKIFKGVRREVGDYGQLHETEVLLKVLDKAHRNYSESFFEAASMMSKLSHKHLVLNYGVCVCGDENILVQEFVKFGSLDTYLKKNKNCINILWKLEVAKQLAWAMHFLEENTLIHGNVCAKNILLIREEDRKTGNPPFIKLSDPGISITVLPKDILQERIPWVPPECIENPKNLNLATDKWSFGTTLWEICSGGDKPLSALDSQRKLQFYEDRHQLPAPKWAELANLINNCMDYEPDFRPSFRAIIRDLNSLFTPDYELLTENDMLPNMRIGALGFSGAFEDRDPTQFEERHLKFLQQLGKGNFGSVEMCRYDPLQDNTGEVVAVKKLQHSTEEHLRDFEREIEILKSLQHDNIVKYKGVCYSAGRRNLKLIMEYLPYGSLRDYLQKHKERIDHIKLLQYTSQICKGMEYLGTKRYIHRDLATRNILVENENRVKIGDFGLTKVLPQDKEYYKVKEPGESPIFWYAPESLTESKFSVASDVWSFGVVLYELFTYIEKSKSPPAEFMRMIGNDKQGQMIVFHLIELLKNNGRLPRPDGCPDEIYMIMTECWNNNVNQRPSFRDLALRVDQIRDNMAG
Sequence of TYK2 (P29597 whole entry): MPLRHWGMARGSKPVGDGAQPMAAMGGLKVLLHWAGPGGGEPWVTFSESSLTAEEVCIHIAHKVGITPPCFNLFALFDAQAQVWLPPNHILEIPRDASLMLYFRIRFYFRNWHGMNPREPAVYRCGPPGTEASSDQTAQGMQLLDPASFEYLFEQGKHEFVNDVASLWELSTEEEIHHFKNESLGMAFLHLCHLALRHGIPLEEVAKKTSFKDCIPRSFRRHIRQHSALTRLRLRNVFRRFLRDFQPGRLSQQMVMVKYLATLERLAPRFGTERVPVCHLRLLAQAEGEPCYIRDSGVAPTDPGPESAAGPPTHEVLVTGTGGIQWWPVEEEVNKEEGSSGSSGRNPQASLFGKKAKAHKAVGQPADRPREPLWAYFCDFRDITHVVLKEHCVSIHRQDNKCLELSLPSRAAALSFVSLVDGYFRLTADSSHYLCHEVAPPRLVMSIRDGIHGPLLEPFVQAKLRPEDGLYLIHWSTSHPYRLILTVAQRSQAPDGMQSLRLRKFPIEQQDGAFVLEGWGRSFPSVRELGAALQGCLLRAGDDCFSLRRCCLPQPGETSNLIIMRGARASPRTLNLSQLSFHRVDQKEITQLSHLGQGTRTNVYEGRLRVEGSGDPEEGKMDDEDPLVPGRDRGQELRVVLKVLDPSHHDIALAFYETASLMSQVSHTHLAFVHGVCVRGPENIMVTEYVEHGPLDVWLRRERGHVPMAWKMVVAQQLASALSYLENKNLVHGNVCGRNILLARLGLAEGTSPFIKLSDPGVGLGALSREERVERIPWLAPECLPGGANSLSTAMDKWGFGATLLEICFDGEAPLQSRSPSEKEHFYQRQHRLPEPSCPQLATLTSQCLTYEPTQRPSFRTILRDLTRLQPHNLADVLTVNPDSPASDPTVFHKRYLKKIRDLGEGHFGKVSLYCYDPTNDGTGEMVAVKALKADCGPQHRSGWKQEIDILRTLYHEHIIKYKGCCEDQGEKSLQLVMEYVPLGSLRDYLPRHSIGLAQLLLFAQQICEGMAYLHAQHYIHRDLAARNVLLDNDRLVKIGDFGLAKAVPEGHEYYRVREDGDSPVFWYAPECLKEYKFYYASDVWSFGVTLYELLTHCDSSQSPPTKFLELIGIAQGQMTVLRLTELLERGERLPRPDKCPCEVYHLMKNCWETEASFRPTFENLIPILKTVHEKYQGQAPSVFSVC

Turning to `CCNC(=O)Cc1ccc(Nc2nc(-c3c(F)cncc3F)nc3c2C(=O)NC3)cc1` [Compound I-208, 2-(4-((2-(3,5-difluoropyridin-4-yl)-5-oxo-6,7-dihydro-5H-pyrrolo[3,4-d]pyrimidin-4-yl)amino)phenyl)-N-ethylacetamide], the figures for the negative logarithm of the Ki (pKi) on TYK2 and on JAK2 were 6.00 to 7.00 and below 6.00, respectively.

`CN1CCN(C)[C@@](C)(c2ccc(Nc3nc(-c4c(F)cccc4F)nc4c3C(=O)NC4)cc2)C1=O` [Compound I-211, (S)-2-(2,6-difluorophenyl)-4-((4-(1,2,4-trimethyl-3-oxopiperazin-2-yl)phenyl)amino)-6,7-dihydro-5H-pyrrolo[3,4-d]pyrimidin-5-one]: the values for the pKi on TYK2 and on JAK2 were above 8.00 and 7.00 to 8.00, respectively.

As to `CC1(C)CC(c2ccc(Nc3nc(-c4c(F)cccc4F)nc4c3C(=O)NC4)cc2)C(=O)N1` (centres unmarked) [Compound I-213, 2-(2,6-difluorophenyl)-4-((4-(5,5-dimethyl-2-oxopyrrolidin-3-yl)phenyl)amino)-6,7-dihydro-5H-pyrrolo[3,4-d]pyrimidin-5-one], the negative logarithm of the Ki (pKi) – broadly, the Ki on a negative log10 scale, so that one unit is a factor of ten – was above 8.00 on TYK2 and 6.00 to 7.00 on JAK2.

As for `CN1CCNC(C)(c2ccc(Nc3nc(-c4c(F)cccc4F)nc4c3C(=O)NC4)cc2)C1=O` (centres unmarked) [Compound I-215, 2-(2,6-difluorophenyl)-4-((4-(2,4-dimethyl-3-oxopiperazin-2-yl)phenyl)amino)-6,7-dihydro-5H-pyrrolo[3,4-d]pyrimidin-5-one], the pKi on TYK2 is above 8.00; at JAK2 it was 7.00 to 8.00.

Consider `CN1CCN[C@](C)(c2ccc(Nc3nc(-c4c(F)cccc4F)nc4c3C(=O)NC4)cc2)C1=O` [Compound I-216, (R)-2-(2,6-difluorophenyl)-4-((4-(2,4-dimethyl-3-oxopiperazin-2-yl)phenyl)amino)-6,7-dihydro-5H-pyrrolo[3,4-d]pyrimidin-5-one], for which the negative-log Ki (pKi) at TYK2 was above 8.00; at JAK2 it was 6.00 to 7.00.

For the molecule `CN1CCN[C@@](C)(c2ccc(Nc3nc(-c4c(F)cccc4F)nc4c3C(=O)NC4)cc2)C1=O` [Compound I-217, (S)-2-(2,6-difluorophenyl)-4-((4-(2,4-dimethyl-3-oxopiperazin-2-yl)phenyl)amino)-6,7-dihydro-5H-pyrrolo[3,4-d]pyrimidin-5-one], the results for the negative logarithm of the Ki (pKi) on TYK2 and on JAK2 were above 8.00 and 7.00 to 8.00, respectively.

In the case of `CC1(C)C[C@@H](c2ccc(Nc3nc(-c4c(F)cccc4F)nc4c3C(=O)NC4)cc2)C(=O)N1` [Compound I-218, (S)-2-(2,6-difluorophenyl)-4-((4-(5,5-dimethyl-2-oxopyrrolidin-3-yl)phenyl)amino)-6,7-dihydro-5H-pyrrolo[3,4-d]pyrimidin-5-one], the pKi on TYK2 is above 8.00; at JAK2 it was 6.00 to 7.00.

On to `CC1(C)C[C@H](c2ccc(Nc3nc(-c4c(F)cccc4F)nc4c3C(=O)NC4)cc2)C(=O)N1` [Compound I-219, (R)-2-(2,6-difluorophenyl)-4-((4-(5,5-dimethyl-2-oxopyrrolidin-3-yl)phenyl)amino)-6,7-dihydro-5H-pyrrolo[3,4-d]pyrimidin-5-one], for which the results for the negative-log Ki (pKi) on TYK2 and on JAK2 were above 8.00 and 7.00 to 8.00, respectively.

Regarding `CN1C(=O)C(C)(c2ccc(Nc3nc(-c4c(F)cccc4F)nc4c3C(=O)NC4)cc2)CC1(C)C` (centres unmarked) [Compound I-220, 2-(2,6-difluorophenyl)-4-((4-(1,3,5,5-tetramethyl-2-oxo-pyrrolidin-3-yl)phenyl)amino)-6,7-dihydro-5H-pyrrolo[3,4-d]pyrimidin-5-one], the figures for the pKi at TYK2 and on JAK2 were above 8.00 and 7.00 to 8.00, respectively.

Take `CN1C(=O)[C@](C)(c2ccc(Nc3nc(-c4c(F)cccc4F)nc4c3C(=O)NC4)cc2)CC1(C)C` [Compound I-221, (S)-2-(2,6-difluorophenyl)-4-((4-(1,3,5,5-tetramethyl-2-oxopyrrolidin-3-yl)phenyl)amino)-6,7-dihydro-5H-pyrrolo[3,4-d]pyrimidin-5-one]: the pKi on TYK2 was above 8.00; on JAK2 it was 7.00 to 8.00.

With `CN1C(=O)[C@@](C)(c2ccc(Nc3nc(-c4c(F)cccc4F)nc4c3C(=O)NC4)cc2)CC1(C)C` [Compound I-222, (R)-2-(2,6-difluorophenyl)-4-((4-(1,3,5,5-tetramethyl-2-oxopyrrolidin-3-yl)phenyl)amino)-6,7-dihydro-5H-pyrrolo[3,4-d]pyrimidin-5-one], the values for the negative logarithm of the Ki (pKi) at TYK2 and at JAK2 were above 8.00 and 7.00 to 8.00, respectively.

In the case of `CN1CCNC(C)(c2ccc(Nc3cc(-c4c(F)cccc4F)nc4c3C(=O)NC4)nc2)C1=O` (centres unmarked) [Compound I-223, 2-(2,6-difluorophenyl)-4-((5-(2,4-dimethyl-3-oxopiperazin-2-yl)pyridin-2-yl)amino)-6,7-dihydro-5H-pyrrolo[3,4-b]pyridin-5-one], the pKi on TYK2 and on JAK2 was above 8.00 in each case.

Take `CN1CCN[C@](C)(c2ccc(Nc3cc(-c4c(F)cccc4F)nc4c3C(=O)NC4)nc2)C1=O` [Compound I-224, (R)-2-(2,6-difluorophenyl)-4-((5-(2,4-dimethyl-3-oxopiperazin-2-yl)pyridin-2-yl)amino)-6,7-dihydro-5H-pyrrolo[3,4-b]pyridin-5-one]: the negative logarithm of the Ki (pKi) on TYK2 and on JAK2 was above 8.00 each time.

Regarding `CN1CCN[C@@](C)(c2ccc(Nc3cc(-c4c(F)cccc4F)nc4c3C(=O)NC4)nc2)C1=O` [Compound I-225, (S)-2-(2,6-difluorophenyl)-4-((5-(2,4-dimethyl-3-oxopiperazin-2-yl)pyridin-2-yl)amino)-6,7-dihydro-5H-pyrrolo[3,4-b]pyridin-5-one], the negative logarithm of the Ki (pKi) on TYK2 and on JAK2 was above 8.00 each time.

For `O=C(NCC1CC1)c1ccc(Nc2cc(-c3c(F)cccc3F)nc3c2C(=O)NC3)nc1` [Compound I-226, N-(cyclopropylmethyl)-6-((2-(2,6-difluorophenyl)-5-oxo-6,7-dihydro-5H-pyrrolo[3,4-b]pyridin-4-yl)amino)nicotinamide], the figures for the pKi on TYK2 and on JAK2 were above 8.00 and 7.00 to 8.00, respectively.

On to `COc1ccc(Nc2cc(-c3c(F)cccc3F)nc3c2C(=O)NC3)cc1` [Compound I-230, 2-(2,6-difluorophenyl)-4-((4-methoxyphenyl)amino)-6,7-dihydro-5H-pyrrolo[3,4-b]pyridin-5-one], for which the negative logarithm of the Ki (pKi) is above 8.00 at TYK2 and 6.00 to 7.00 on JAK2.

As for `NC(=O)c1cc(F)c(-c2cc(Nc3ccc(N4CCOCC4)cn3)c3c(n2)CNC3=O)c(F)c1` [Compound I-250, 3,5-difluoro-4-(4-((5-morpholinopyridin-2-yl)amino)-5-oxo-6,7-dihydro-5H-pyrrolo[3,4-b]pyridin-2-yl)benzamide], the negative-log Ki (pKi) at TYK2 was 7.00 to 8.00; at JAK2, 6.00 to 7.00.

As to `CC1(C)CN(c2ccc(Nc3cc(-c4c(F)cccc4F)nc4c3C(=O)NC4)nc2)CC[C@H]1O` [Compound I-268, (R)-2-(2,6-difluorophenyl)-4-((5-(4-hydroxy-3,3-dimethyl-piperidin-1-yl)pyridin-2-yl)amino)-6,7-dihydro-5H-pyrrolo[3,4-b]pyridin-5-one], the negative logarithm of the Ki (pKi) is above 8.00 on TYK2 and 7.00 to 8.00 at JAK2.

Consider `O=C1NCc2nc(-c3c(F)cccc3F)cc(Nc3ccc(C(=O)N4CCOCC4)nc3)c21` [Compound I-280, 2-(2,6-difluorophenyl)-4-((6-(morpholine-4-carbonyl)pyridin-3-yl)amino)-6,7-dihydro-5H-pyrrolo[3,4-b]pyridin-5-one], for which the pKi was 7.00 to 8.00 at TYK2 and 6.00 to 7.00 on JAK2.
